# Experimental data: US6355799B1, “Substituted benzene compounds, process for their preparation, and herbicidal and defoliant compositions containing them” (ISK Americas Incorporated, priority 1997, dated 2002)
# Legend:
# Assay type in all cases: in vivo
# [1] = test system: redroot pigweed (Amaranthus retroflexus, AMARE); assay: Pre-emerge test, greenhouse herbicide activity screening; details: pre-emerge, 14 days after application, scale 0-100
# How it was run: (§1)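 Visual ratings on a 0-100 scale (0 no damage, 100 all plants dead) were taken at 14 days after treatment. Rates of 15-1000 g ai/ha in acetone, 187 l/ha, were sprayed onto soil one day after planting (pre-emerge) or onto 2-3 leaf plants with 0.25% v/v surfactant (post-emerge).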
# [2] = test system: barnyardgrass (Echinochloa crus-galli, ECHCG); assay: as above; details: pre-emerge, 14 days after application, scale 0-100
# How it was run: (§2)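 Compounds in acetone were track-sprayed at 15-1000 g ai/ha (187 l/ha) on sandy loam pots: pre-emerge one day after seeding, post-emerge at 2-3 leaf stage with 0.25% v/v non-ionic surfactant. Phytotoxicity was rated 14 days later on a 0 (no damage) to 100 (complete death) scale.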
# [3] = test system: sicklepod (Cassia obtusifolia, CASOB); assay: as above; details: pre-emerge, 14 days after application, scale 0-100
# How it was run: as §2
# [4] = test system: ivyleaf morningglory (Ipomoea hederacea, IPOHE); assay: as above; details: pre-emerge, 14 days after application, scale 0-100
# How it was run: as §2
# [5] = test system: lambsquarters (Chenopodium album, CHEAL); assay: as above; details: pre-emerge, 14 days after application, scale 0-100
# How it was run: as §2
# [6] = test system: large crabgrass (Digitaria sanguinalis, DIGSA); assay: as above; details: pre-emerge, 14 days after application, scale 0-100
# How it was run: as §2
# [7] = test system: johnsongrass (Sorghum halepense, SORHA); assay: as above; details: pre-emerge, 14 days after application, scale 0-100
# How it was run: as §2
# [8] = test system: green foxtail (Setaria viridis, SETVI); assay: as above; details: pre-emerge, 14 days after application, scale 0-100
# How it was run: as §2
# [9] = test system: velvetleaf (Abutilon theophrasti, ABUTH); assay: as above; details: pre-emerge, 14 days after application, scale 0-100
# How it was run: as §2
# [10] = test system: barnyardgrass (Echinochloa crus-galli, ECHCG); assay: Post-emerge test, greenhouse herbicide activity screening; details: post-emerge, 14 days after application, rating scale 0-100
# How it was run: as §1
# [11] = test system: sicklepod (Cassia obtusifolia, CASOB); assay: as above; details: post-emerge, 14 days after application, rating scale 0-100
# How it was run: as §1
# [12] = test system: ivyleaf morningglory (Ipomoea hederacea, IPOHE); assay: as above; details: post-emerge, 14 days after application, rating scale 0-100
# How it was run: as §1
# [13] = test system: lambsquarters (Chenopodium album, CHEAL); assay: as above; details: post-emerge, 14 days after application, rating scale 0-100
# How it was run: as §1
# [14] = test system: large crabgrass (Digitaria sanguinalis, DIGSA); assay: as above; details: post-emerge, 14 days after application, rating scale 0-100
# How it was run: as §1
# [15] = test system: redroot pigweed (Amaranthus retroflexus, AMARE); assay: as above; details: post-emerge, 14 days after application, rating scale 0-100
# How it was run: as §1
# [16] = test system: green foxtail (Setaria viridis, SETVI); assay: as above; details: post-emerge, 14 days after application, rating scale 0-100
# How it was run: as §1
# [17] = test system: velvetleaf (Abutilon theophrasti, ABUTH); assay: as above; details: post-emerge, 14 days after application, rating scale 0-100
# How it was run: as §1
# [18] = test system: field corn (Zea mays L., var. Dekalb 535, CORN); assay: Post-emerge test, crop safety; details: post-emerge, 14 days after application, rating scale 0-100
# How it was run: as §2
# [19] = test system: upland rice (Oryza sp., var. Tebonnet, RICE); assay: Post-emerge test, crop safety; details: post-emerge, 14 days after application, rating scale 0-100
# How it was run: as §2
# [20] = test system: field corn (Zea mays L., var. Dekalb 535, CORN); assay: Pre-emerge test, crop safety; details: pre-emerge, 14 days after application, scale 0-100
# How it was run: (§3)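 Applied at 15–1000 g ai/ha from acetone in 187 l/ha spray volume. Post-emergence applications included 0.25% v/v non-ionic surfactant and reached plants sown 8–21 days before. Pre-emergence applications were incorporated by surface watering. Efficacy or crop damage was rated on a 0–100 scale after 14 days.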
# [21] = test system: upland rice (Oryza sp., var. Tebonnet, RICE); assay: Pre-emerge test, crop safety; details: pre-emerge, 14 days after application, scale 0-100
# How it was run: as §3
compound,measurement,setting,value
COc1c(Cl)cc(F)c(-n2c(=O)cc(C(F)(F)F)n(C)c2=O)c1NC(=O)CCc1cc(C)ccc1C [2-132],phytotoxicity rating AMARE,[1]; 63 g ai/ha,100
same,phytotoxicity rating AMARE,[1]; 250 g ai/ha,100
same,phytotoxicity rating ECHCG,[2]; 63 g ai/ha,30
same,phytotoxicity rating ECHCG,[2]; 250 g ai/ha,40
same,phytotoxicity rating CASOB,[3]; 63 g ai/ha,50
same,phytotoxicity rating CASOB,[3]; 250 g ai/ha,100
same,phytotoxicity rating IPOHE,[4]; 63 g ai/ha,20
same,phytotoxicity rating IPOHE,[4]; 250 g ai/ha,40
same,phytotoxicity rating CHEAL,[5]; 63 g ai/ha,100
same,phytotoxicity rating CHEAL,[5]; 250 g ai/ha,100
same,phytotoxicity rating DIGSA,[6]; 63 g ai/ha,60
same,phytotoxicity rating DIGSA,[6]; 250 g ai/ha,100
same,phytotoxicity rating SORHA,[7]; 63 g ai/ha,30
same,phytotoxicity rating SORHA,[7]; 250 g ai/ha,50
same,phytotoxicity rating SETVI,[8]; 63 g ai/ha,90
same,phytotoxicity rating SETVI,[8]; 250 g ai/ha,100
same,phytotoxicity rating ABUTH,[9]; 63 g ai/ha,100
same,phytotoxicity rating ABUTH,[9]; 250 g ai/ha,100
same,ECHCG phytotoxicity rating,[10]; 63 g ai/ha,20
same,ECHCG phytotoxicity rating,[10]; 250 g ai/ha,40
same,CASOB phytotoxicity rating,[11]; 63 g ai/ha,100
same,CASOB phytotoxicity rating,[11]; 250 g ai/ha,99
same,IPOHE phytotoxicity rating,[12]; 63 g ai/ha,100
same,IPOHE phytotoxicity rating,[12]; 250 g ai/ha,100
same,CHEAL phytotoxicity rating,[13]; 63 g ai/ha,100
same,CHEAL phytotoxicity rating,[13]; 250 g ai/ha,100
same,DIGSA phytotoxicity rating,[14]; 63 g ai/ha,10
same,DIGSA phytotoxicity rating,[14]; 250 g ai/ha,25
same,AMARE phytotoxicity rating,[15]; 63 g ai/ha,100
same,AMARE phytotoxicity rating,[15]; 250 g ai/ha,100
same,SETVI phytotoxicity rating,[16]; 63 g ai/ha,40
same,SETVI phytotoxicity rating,[16]; 250 g ai/ha,60
same,ABUTH phytotoxicity rating,[17]; 63 g ai/ha,100
same,ABUTH phytotoxicity rating,[17]; 250 g ai/ha,100
same,CORN phytotoxicity rating (crop damage),[18]; 63 g ai/ha,60
same,CORN phytotoxicity rating (crop damage),[18]; 250 g ai/ha,75
same,RICE phytotoxicity rating (crop damage),[19]; 63 g ai/ha,50
same,RICE phytotoxicity rating (crop damage),[19]; 250 g ai/ha,80
same,phytotoxicity rating CORN (crop damage),[20]; 63 g ai/ha,5
same,phytotoxicity rating CORN (crop damage),[20]; 250 g ai/ha,15
same,phytotoxicity rating RICE (crop damage),[21]; 63 g ai/ha,15
same,phytotoxicity rating RICE (crop damage),[21]; 250 g ai/ha,45
Cn1c(C(F)(F)F)cc(=O)n(-c2ccc(C#N)cc2NC(=O)c2ccc3ccccc3c2)c1=O [2-140],phytotoxicity rating AMARE,[1]; 63 g ai/ha,100
same,phytotoxicity rating AMARE,[1]; 250 g ai/ha,100
same,phytotoxicity rating ECHCG,[2]; 63 g ai/ha,40
same,phytotoxicity rating ECHCG,[2]; 250 g ai/ha,80
same,phytotoxicity rating CASOB,[3]; 63 g ai/ha,40
same,phytotoxicity rating CASOB,[3]; 250 g ai/ha,100
same,phytotoxicity rating IPOHE,[4]; 63 g ai/ha,10
same,phytotoxicity rating IPOHE,[4]; 250 g ai/ha,100
same,phytotoxicity rating CHEAL,[5]; 63 g ai/ha,100
same,phytotoxicity rating CHEAL,[5]; 250 g ai/ha,100
same,phytotoxicity rating DIGSA,[6]; 63 g ai/ha,40
same,phytotoxicity rating DIGSA,[6]; 250 g ai/ha,95
same,phytotoxicity rating SORHA,[7]; 63 g ai/ha,10
same,phytotoxicity rating SORHA,[7]; 250 g ai/ha,60
same,phytotoxicity rating SETVI,[8]; 63 g ai/ha,50
same,phytotoxicity rating SETVI,[8]; 250 g ai/ha,80
same,phytotoxicity rating ABUTH,[9]; 63 g ai/ha,100
same,phytotoxicity rating ABUTH,[9]; 250 g ai/ha,100
same,ECHCG phytotoxicity rating,[10]; 63 g ai/ha,30
same,ECHCG phytotoxicity rating,[10]; 250 g ai/ha,85
same,CASOB phytotoxicity rating,[11]; 63 g ai/ha,100
same,CASOB phytotoxicity rating,[11]; 250 g ai/ha,100
same,IPOHE phytotoxicity rating,[12]; 63 g ai/ha,100
same,IPOHE phytotoxicity rating,[12]; 250 g ai/ha,100
same,CHEAL phytotoxicity rating,[13]; 63 g ai/ha,100
same,CHEAL phytotoxicity rating,[13]; 250 g ai/ha,100
same,DIGSA phytotoxicity rating,[14]; 63 g ai/ha,20
same,DIGSA phytotoxicity rating,[14]; 250 g ai/ha,65
same,AMARE phytotoxicity rating,[15]; 63 g ai/ha,100
same,AMARE phytotoxicity rating,[15]; 250 g ai/ha,100
same,SETVI phytotoxicity rating,[16]; 63 g ai/ha,40
same,SETVI phytotoxicity rating,[16]; 250 g ai/ha,60
same,ABUTH phytotoxicity rating,[17]; 63 g ai/ha,100
same,ABUTH phytotoxicity rating,[17]; 250 g ai/ha,100
same,CORN phytotoxicity rating (crop damage),[18]; 63 g ai/ha,10
same,CORN phytotoxicity rating (crop damage),[18]; 250 g ai/ha,70
same,RICE phytotoxicity rating (crop damage),[19]; 63 g ai/ha,50
same,RICE phytotoxicity rating (crop damage),[19]; 250 g ai/ha,80
same,phytotoxicity rating CORN (crop damage),[20]; 63 g ai/ha,0
same,phytotoxicity rating CORN (crop damage),[20]; 250 g ai/ha,15
same,phytotoxicity rating RICE (crop damage),[21]; 63 g ai/ha,30
same,phytotoxicity rating RICE (crop damage),[21]; 250 g ai/ha,85
COc1c(Cl)cc(F)c(-n2c(=O)cc(C(F)(F)F)n(C)c2=O)c1NC(=O)COc1ccc(F)cc1 [2-133],phytotoxicity rating AMARE,[1]; 63 g ai/ha,100
same,phytotoxicity rating AMARE,[1]; 250 g ai/ha,100
same,phytotoxicity rating ECHCG,[2]; 63 g ai/ha,65
same,phytotoxicity rating ECHCG,[2]; 250 g ai/ha,95
same,phytotoxicity rating CASOB,[3]; 63 g ai/ha,55
same,phytotoxicity rating CASOB,[3]; 250 g ai/ha,100
same,phytotoxicity rating IPOHE,[4]; 63 g ai/ha,80
same,phytotoxicity rating IPOHE,[4]; 250 g ai/ha,100
same,phytotoxicity rating CHEAL,[5]; 63 g ai/ha,100
same,phytotoxicity rating CHEAL,[5]; 250 g ai/ha,100
same,phytotoxicity rating DIGSA,[6]; 63 g ai/ha,95
same,phytotoxicity rating DIGSA,[6]; 250 g ai/ha,100
same,phytotoxicity rating SORHA,[7]; 63 g ai/ha,75
same,phytotoxicity rating SORHA,[7]; 250 g ai/ha,100
same,phytotoxicity rating SETVI,[8]; 63 g ai/ha,95
same,phytotoxicity rating SETVI,[8]; 250 g ai/ha,100
same,phytotoxicity rating ABUTH,[9]; 63 g ai/ha,100
same,phytotoxicity rating ABUTH,[9]; 250 g ai/ha,100
same,ECHCG phytotoxicity rating,[10]; 63 g ai/ha,50
same,ECHCG phytotoxicity rating,[10]; 250 g ai/ha,85
same,CASOB phytotoxicity rating,[11]; 63 g ai/ha,80
same,CASOB phytotoxicity rating,[11]; 250 g ai/ha,100
same,IPOHE phytotoxicity rating,[12]; 63 g ai/ha,90
same,IPOHE phytotoxicity rating,[12]; 250 g ai/ha,100
same,CHEAL phytotoxicity rating,[13]; 63 g ai/ha,100
same,CHEAL phytotoxicity rating,[13]; 250 g ai/ha,100
same,DIGSA phytotoxicity rating,[14]; 63 g ai/ha,30
same,DIGSA phytotoxicity rating,[14]; 250 g ai/ha,70
same,AMARE phytotoxicity rating,[15]; 63 g ai/ha,100
same,AMARE phytotoxicity rating,[15]; 250 g ai/ha,100
same,SETVI phytotoxicity rating,[16]; 63 g ai/ha,70
same,SETVI phytotoxicity rating,[16]; 250 g ai/ha,75
same,ABUTH phytotoxicity rating,[17]; 63 g ai/ha,100
same,ABUTH phytotoxicity rating,[17]; 250 g ai/ha,100
same,CORN phytotoxicity rating (crop damage),[18]; 63 g ai/ha,70
same,CORN phytotoxicity rating (crop damage),[18]; 250 g ai/ha,95
same,RICE phytotoxicity rating (crop damage),[19]; 63 g ai/ha,80
same,RICE phytotoxicity rating (crop damage),[19]; 250 g ai/ha,95
same,phytotoxicity rating CORN (crop damage),[20]; 63 g ai/ha,20
same,phytotoxicity rating CORN (crop damage),[20]; 250 g ai/ha,80
same,phytotoxicity rating RICE (crop damage),[21]; 63 g ai/ha,70
same,phytotoxicity rating RICE (crop damage),[21]; 250 g ai/ha,93
